Reference: patent US20220193029A1, “BRYOSTATIN COMPOUNDS FOR ENHANCEMENT OF IMMUNOTHERAPY” (priority 2019, published 2022)

Tests used:
PKCδ-GFP fusion protein = assay: PKCδ-GFP translocation assay in living CHO-k1 cells (confocal microscopy); assay type: cell-based, Chinese hamster; conditions: for concentration* (minimum effective concentration required to induce translocation of PKC-GFP to the membrane) / % Translocation: CHO-k1 cells; for % Translocation: maximum translocation of PKCδ-GFP to the plasma membrane at the concentration printed in the same cell, SUW212: only brief translocation observed; for PKC translocation behavior / dynamics of PKC activation: time course, FIG. 6 panels C-D
Method: Because a prerequisite for PKC pathway involvement is binding to PKC, compounds were initially evaluated for PKC affinity in a cell-free competitive binding assay with tritiated phorbol dibutyrate ([^3H]-PDBu). Assays were performed with representative members of both the conventional (PKCα) and novel (PKCδ) PKC families. Subsequently, compounds were assayed for PKC activation in living cells using an isoform translocation assay.
Chinese hamster ovary factor K1 (CHO-k1, ATCC) cells were cultured in F-12 Kaighn's media (Hyclone, 10% fetal bovine serum, 1% penicillin/streptomycin added, referred to as F-12+/+ below) at 37° C. in an incubator (5% CO2). Cell cultures were maintained by splitting cells 1:3 when they reached ˜75-100% confluence (every 2-3 days) as follows:
1 mL of the cell suspension was then added to 9 mL of fresh F-12+/+ and the sample was sub-cultured until reaching confluence (˜2-3 days).
Cells were counted using a Countess II Automated Cell Counter (Fisher). The cell suspension was diluted to 240,000 cells/mL with fresh F-12+/+ and 2.5 mL of this diluted stock was added to one well in a 6-well plate. The cells were then cultured for 24 hours.
F-12+/+ was aspirated and cells were washed with F-12−/−. 2 mL of fresh F-12−/− was then added to each well, taking care not to disturb adherent cells. For each well of CHO-k1 cells, 12.5 μL Lipofectamine 2000 reagent (Invitrogen) was added to 250 μL Opti-MEM reduced serum media (Invitrogen) in a polypropylene tube and incubated for 20 minutes at RT. Meanwhile, for each well, 4 μg of PKCδ-GFP pDNA and 250 μL Opti-MEM reduced serum media was added to a separate polypropylene tube. 250 μL of the Lipofectamine 2000 suspension was added to the DNA suspension and the solution incubated for 30 minutes at RT. 500 μL of the Lipofectamine/DNA suspension was added to the respective wells of the 6-well plate. The cells were then incubated at 37° C. (5% CO2) for ˜24 hrs.
F-12+/+ was aspirated and cells were washed with F-12−/−. 2.4 mL of fresh F-12−/− was then added to each well, taking care not to disturb adherent cells. A 4 μg aliquot of PKCδ-GFP pDNA was added to PBS (pH 5.5, final volume 100 μL). 5.6 μL of DA 13:11 (2 mM stock in DMSO) was then added to the DNA solution, and the mixture was gently mixed (by flicking) for 20 seconds, at which point it was added directly to the respective wells of the 6-well plate. The cells were then incubated at 37° C. (5% C02) for ˜24 hrs.
After incubation, the media was aspirated and cells were washed with PBS (2.0 mL) and trypsinized (500 μL). The cell suspension was then diluted with 2.0 mL F-12+/+. 200 μL aliquots were added to 3 wells of a Lab-Tek II 4-well chambered coverglass slide (Fisher), producing 4 slides in total, each with three wells of cells. The cell suspension was directly diluted with 600 μL of additional F-12+/+. The resulting samples were incubated for ˜24 hrs. prior to imaging.
Fluorescent images were obtained using a Leica SP8 White Light Confocal microscope and the Leica AF software package. Prior to analysis, media was aspirated and 800 μL of PBS (Hyclone, without Ca^2+ or Mg^2+) supplemented with glucose (10 mM) was added to each well of the chambered coverglass slide. Bryostatin and bryostatin analogs were diluted to the appropriate concentration in 200 μL of 10 mM glucose in PBS. Cells were located for imaging and data was recorded for three wells in parallel, imaging at predetermined positions in each well using adaptive focus control. Cells were imaged at 30 second intervals following the addition of compound (set to t=0) for 20-40 minutes. Data were recorded at room temperature. Images were exported as .lif files and fluorescence intensity was analyzed using FIJI (NIH) software.

[1] = test system: CD22 surface expression in NALM6 cells; assay: CD22 surface expression assay by flow cytometry; assay type: cell-based, human; conditions: NALM6 cells; for Fold increase CD22 expression / fold induction at 0.001 µM: At 1 nM, relative to DMSO control; for fold induction at 0.001 µM: Homo sapiens, NALM-6, read-out: Fold increase CD22 expression
Method: Cell cultures were maintained between 4×10^5 and 3×10^6 cells/mL according to vendor instructions.
Cell suspension from a confluent T75 flask (Fisher) was transferred to a 15 mL falcon tube and centrifuged at 1100 rpm for 7 minutes. […] Cells were counted using a Countess II Automated Cell Counter (Fisher). […] 199 μL of this stock was added to 24 wells (enough for triplicate measurements for 8 different experimental conditions) in a 96-well plate. […] 1 μL of DMSO or the appropriate stock solution of compound in DMSO was added to each well. Cells were incubated for 24 hours, at which point the cell suspensions were transferred to 1.5 mL Eppendorf tubes and diluted with 1.0 mL of PBS (Hyclone, without Ca^2+ or Mg^2+). Samples were centrifuged at 2000 rpm for 5 min at RT. […] Cells were sub-cultured between 2×10^5 and 3×10^6 cells/mL in 24-well plates for an additional 24 hrs-7 days, at which point CD22 surface expression was assayed by flow cytometry.
Cells from one well were counted using a Countess II Automated Cell Counter (Fisher). ˜200,000-300,000 cells from each well were added to 1.5 mL Eppendorf tubes containing PBS (final volume ˜1.2 mL). The cell suspensions were centrifuged at 1500 rpm for 7 minutes at 4° C. The supernatant was aspirated, and the cell pellet was resuspended in 99 μL of pre-chilled FACS buffer (0.5% w/v BSA in PBS). […] Samples were then diluted with an additional 1.0 mL of FACS buffer and centrifuged at 1500 rpm for 7 minutes at 4° C. […] Cells were stained with DAPI and CD22 surface expression was analyzed using the FACScan Analyzer at the Stanford Shared FACS Facility. Data analysis was performed using FlowJo and Microsoft Excel.

Structure (SMILES) | concentration* (minimum effective concentration required to induce translocation of PKC-GFP to the membrane) (PKCδ-GFP fusion protein) | % Translocation (PKCδ-GFP fusion protein) | PKC translocation behavior / dynamics of PKC activation (PKCδ-GFP fusion protein) | Fold increase CD22 expression [1] | activity in the CD22 induction assay, in words ([1]; 1 nM or 10 nM, 24 hours) | fold induction at 0.001 µM [1] | cytosolic PKC translocated (PKCδ-GFP fusion protein; 1000 nM)
CCCC=CC=CC(=O)OC1C(=CC(=O)OC)CC2CC(C(C)O)OC(=O)CC(O)CC3CC(OC(C)=O)C(C)(C)C(O)(CC4CC(=CC(=O)OCC)CC(C=CC(C)(C)C1(O)O2)O4)O3 (centres unmarked) [SUW218] | 200 nM | 55% | more sustained linear activation dynamics | 1.92 fold |  |  | 
C=CCOC(=O)/C=C1/C[C@H]2C[C@]3(O)O[C@H](C[C@@H](O)CC(=O)O[C@@H]([C@@H](C)O)C[C@@H]4C/C(=C\C(=O)OC)[C@H](OC(=O)/C=C/C=C/CCC)[C@@](O)(O4)C(C)(C)/C=C/[C@@H](C1)O2)C[C@H](OC(C)=O)C3(C)C [SUW229] | 200 nM | 50% | more sustained linear activation dynamics |  | top performer |  | 
CCCCCCCC(=O)O[C@H]1/C(=C/C(=O)OC)C[C@H]2C[C@H]([C@@H](C)O)OC(=O)C[C@H](O)C[C@@H]3C[C@H](OC(C)=O)C(C)(C)[C@](O)(C[C@@H]4C[C@@H](C)C[C@H](/C=C/C(C)(C)[C@]1(O)O2)O4)O3 [SUW226] | 200 nM | 75% |  |  |  | 1.76 | 
CCC/C=C/C=C/C(=O)O[C@H]1/C(=C/C(=O)OC)C[C@H]2C[C@H]([C@@H](C)O)OC(=O)C[C@H](O)C[C@@H]3C[C@H](OC(C)=O)C(C)(C)[C@](O)(C[C@@H]4C[C@H](OC(C)=O)C[C@H](/C=C/C(C)(C)[C@]1(O)O2)O4)O3 [SUW206] | 200 nM | 60% | almost identical behavior both to each other and to bryostatin 1 |  |  | 1.63 | 
CCC/C=C/C=C/C(=O)O[C@H]1/C(=C/C(=O)OC)C[C@H]2C[C@H]([C@@H](C)O)OC(=O)C[C@H](O)C[C@@H]3C[C@H](OC(C)=O)C(C)(C)[C@](O)(C[C@@H]4C[C@@H](OC(C)=O)C[C@H](/C=C/C(C)(C)[C@]1(O)O2)O4)O3 [SUW207] | 200 nM | 60% | almost identical behavior both to each other and to bryostatin 1 |  |  | 1.33 | 
CCCCCC#CC(=O)O[C@H]1/C(=C/C(=O)OC)C[C@H]2C[C@H]([C@@H](C)O)OC(=O)C[C@H](O)C[C@@H]3C[C@H](OC(C)=O)C(C)(C)[C@](O)(C[C@@H]4C[C@@](O)(CO)C[C@H](/C=C/C(C)(C)[C@]1(O)O2)O4)O3 [SUW203] | 1000 nM | 50% |  |  |  | 1.16 | ~50%
CCCC=CC=CC(=O)OC1C(=CC(=O)OC)CC2CC(C(C)O)OC(=O)CC(O)CC3CC(OC(C)=O)C(C)(C)C(O)(CC4CC(=CC(=O)OCC)CC(C=CC(C)(C)C1(O)O2)O4)O3 (centres unmarked) [SUW217] | 200 nM | 75% |  | 1.97 fold |  |  | 
